Measured values taken from patent US9149038B2, “4-amino-6-(heterocyclic)picolinates and 6-amino-2-(heterocyclic)pyrimidine-4-carboxylates and their use as herbicides” (Dow AgroSciences LLC, priority 2013, dated 2015).
Like-named read-outs stand apart in the source and are kept apart here.

Tested on: Direct Seeded Rice and weed species
Experiment: Postemergence herbicidal activity in direct seeded rice, visual rating after 20-22 days and probit GR20/GR50/GR80/GR90 (Table 14)
Format: in vivo
Conditions: for pest or weed control at 17.5 g/ha / pest or weed control at 35 g/ha / pest or weed control at 70 g/ha: post-emergence, 504 h, postemergence; for pest or weed control at 17.5 g/ha: 17.5 g ai/ha; for pest or weed control at 35 g/ha: 35 g ai/ha; for pest or weed control at 70 g/ha: 70 g ai/ha
Summary of the method: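 Rice and weeds grown in loam–sand soil (pH about 8.1) in greenhouse to 2nd–3rd true leaf, then sprayed postemergence at 187 L/ha in acetone/DMSO with 1.25% (v/v) Agri-dex crop oil. Injury rated visually 0–100 after 20-22 days versus untreated plants; GR20, GR50, GR80, GR90 obtained by probit analysis across dose rates.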

[1] = BRAPP (broadleaf signalgrass, Brachiaria platyphylla), read-out: Visual Growth Reduction (%) 21 Days After Application BRAPP
[2] = CYPDI (small-flower flatsedge, Cyperus difformis), read-out: Visual Growth Reduction (%) 21 Days After Application CYPDI
[3] = CYPES (yellow nutsedge, Cyperus esculentus), read-out: Visual Growth Reduction (%) 21 Days After Application CYPES
[4] = CYPIR (rice flatsedge, Cyperus iria), read-out: Visual Growth Reduction (%) 21 Days After Application CYPIR
[5] = DIGSA (large crabgrass, Digitaria sanguinalis), read-out: Visual Growth Reduction (%) 21 Days After Application DIGSA
[6] = ECHCG (barnyardgrass, Echinochloa crus-galli), read-out: Visual Growth Reduction (%) 21 Days After Application ECHCG
[7] = ECHCO (junglerice, Echinochloa colonum), read-out: Visual Growth Reduction (%) 21 Days After Application ECHCO
[8] = LEFCH (Chinese sprangletop, Leptochloa chinensis), read-out: Visual Growth Reduction (%) 21 Days After Application LEFCH
[9] = ORYSJ (Oryza sativa, rice crop), read-out: Visual Growth Reduction (%) 21 Days After Application ORYSJ
[10] = ORYSK (Oryza sativa, rice crop), read-out: Visual Growth Reduction (%) 21 Days After Application ORYSK
[11] = SCPJU (Japanese bulrush, Schoenoplectus juncoides Roxb.), read-out: Visual Growth Reduction (%) 21 Days After Application SCPJU
[12] = SEBEX (hemp sesbania, Sesbania exaltata), read-out: Visual Growth Reduction (%) 21 Days After Application SEBEX

Nc1cc(-c2cc3c(cc2F)OC(F)(F)O3)nc(C(=O)O)c1Cl [Compound 42]
GR50 BRAPP (BRAPP (Brachiaria platyphylla), probit analysis, dose for 50 percent growth reduction): 0.004 g ai/ha
GR80 BRAPP (BRAPP (Brachiaria platyphylla), probit analysis, dose for 80 percent growth reduction): 0.2 g ai/ha
GR90 BRAPP (BRAPP (Brachiaria platyphylla), probit analysis, dose for 90 percent growth reduction): 1 g ai/ha
GR50 CYPDI (CYPDI (Cyperus difformis), probit analysis, dose for 50 percent growth reduction): 0.004 g ai/ha
GR80 CYPDI (CYPDI (Cyperus difformis), probit analysis, dose for 80 percent growth reduction): 0.2 g ai/ha
GR90 CYPDI (CYPDI (Cyperus difformis), probit analysis, dose for 90 percent growth reduction): 1 g ai/ha
GR50 CYPES (CYPES (Cyperus esculentus), probit analysis, dose for 50 percent growth reduction): 0.4 g ai/ha
GR80 CYPES (CYPES (Cyperus esculentus), probit analysis, dose for 80 percent growth reduction): 2 g ai/ha
GR90 CYPES (CYPES (Cyperus esculentus), probit analysis, dose for 90 percent growth reduction): 5 g ai/ha
GR50 CYPIR (CYPIR (Cyperus iria), probit analysis, dose for 50 percent growth reduction): 3 g ai/ha
GR80 CYPIR (CYPIR (Cyperus iria), probit analysis, dose for 80 percent growth reduction): 5 g ai/ha
GR90 CYPIR (CYPIR (Cyperus iria), probit analysis, dose for 90 percent growth reduction): 6 g ai/ha
GR50 DIGSA (DIGSA (Digitaria sanguinalis), probit analysis, dose for 50 percent growth reduction): 0.004 g ai/ha
GR80 DIGSA (DIGSA (Digitaria sanguinalis), probit analysis, dose for 80 percent growth reduction): 0.158 g ai/ha
GR90 DIGSA (DIGSA (Digitaria sanguinalis), probit analysis, dose for 90 percent growth reduction): 1 g ai/ha
GR50 ECHCG (ECHCG (Echinochloa crus-galli), probit analysis, dose for 50 percent growth reduction): 0.0001 g ai/ha
GR80 ECHCG (ECHCG (Echinochloa crus-galli), probit analysis, dose for 80 percent growth reduction): 0.0001 g ai/ha
GR90 ECHCG (ECHCG (Echinochloa crus-galli), probit analysis, dose for 90 percent growth reduction): 0.0001 g ai/ha
GR50 ECHCO (ECHCO (Echinochloa colonum), probit analysis, dose for 50 percent growth reduction): 0.00015 g ai/ha
GR80 ECHCO (ECHCO (Echinochloa colonum), probit analysis, dose for 80 percent growth reduction): 0.0207 g ai/ha
GR90 ECHCO (ECHCO (Echinochloa colonum), probit analysis, dose for 90 percent growth reduction): 0.268 g ai/ha
GR50 LEFCH (LEFCH (Leptochloa chinensis), probit analysis, dose for 50 percent growth reduction): 4 g ai/ha
GR80 LEFCH (LEFCH (Leptochloa chinensis), probit analysis, dose for 80 percent growth reduction): 8 g ai/ha
GR90 LEFCH (LEFCH (Leptochloa chinensis), probit analysis, dose for 90 percent growth reduction): 13 g ai/ha
GR20 ORYSJ (ORYSJ (Oryza sativa, rice crop), probit analysis, dose for 20 percent growth reduction): 1 g ai/ha
GR20 ORYSK (ORYSK (Oryza sativa, rice crop), probit analysis, dose for 20 percent growth reduction): 1 g ai/ha
GR50 SCPJU (SCPJU (Schoenoplectus juncoides Roxb.), probit analysis, dose for 50 percent growth reduction): 0.0001 g ai/ha
GR80 SCPJU (SCPJU (Schoenoplectus juncoides Roxb.), probit analysis, dose for 80 percent growth reduction): 0.0001 g ai/ha
GR90 SCPJU (SCPJU (Schoenoplectus juncoides Roxb.), probit analysis, dose for 90 percent growth reduction): 0.0001 g ai/ha
GR50 SEBEX (SEBEX (Sesbania exaltata), probit analysis, dose for 50 percent growth reduction): 2 g ai/ha
GR80 SEBEX (SEBEX (Sesbania exaltata), probit analysis, dose for 80 percent growth reduction): 5 g ai/ha
GR90 SEBEX (SEBEX (Sesbania exaltata), probit analysis, dose for 90 percent growth reduction): 9 g ai/ha
pest or weed control at 17.5 g/ha [1]: 95 to 100%
pest or weed control at 35 g/ha [1]: 95 to 100%
pest or weed control at 70 g/ha [1]: 95 to 100%
pest or weed control at 17.5 g/ha [2]: 95 to 100%
pest or weed control at 35 g/ha [2]: 95 to 100%
pest or weed control at 70 g/ha [2]: 95 to 100%
pest or weed control at 17.5 g/ha [3]: 95 to 100%
pest or weed control at 35 g/ha [3]: 95 to 100%
pest or weed control at 70 g/ha [3]: 95 to 100%
pest or weed control at 17.5 g/ha [4]: 95 to 100%
pest or weed control at 35 g/ha [4]: 95 to 100%
pest or weed control at 70 g/ha [4]: 95 to 100%
pest or weed control at 17.5 g/ha [5]: 95 to 100%
pest or weed control at 35 g/ha [5]: 95 to 100%
pest or weed control at 70 g/ha [5]: 95 to 100%
pest or weed control at 17.5 g/ha [6]: 95 to 100%
pest or weed control at 35 g/ha [6]: 95 to 100%
pest or weed control at 70 g/ha [6]: 95 to 100%
pest or weed control at 17.5 g/ha [7]: 95 to 100%
pest or weed control at 35 g/ha [7]: 95 to 100%
pest or weed control at 70 g/ha [7]: 95 to 100%
pest or weed control at 17.5 g/ha [8]: 95 to 100%
pest or weed control at 35 g/ha [8]: 95 to 100%
pest or weed control at 70 g/ha [8]: 95 to 100%
pest or weed control at 17.5 g/ha [9]: 85 to 94%
pest or weed control at 35 g/ha [9]: 95 to 100%
pest or weed control at 70 g/ha [9]: 95 to 100%
pest or weed control at 17.5 g/ha [10]: 60 to 74%
pest or weed control at 35 g/ha [10]: 75 to 84%
pest or weed control at 70 g/ha [10]: 75 to 84%
pest or weed control at 17.5 g/ha [11]: 95 to 100%
pest or weed control at 35 g/ha [11]: 95 to 100%
pest or weed control at 70 g/ha [11]: 95 to 100%
pest or weed control at 17.5 g/ha [12]: 95 to 100%
pest or weed control at 35 g/ha [12]: 95 to 100%
pest or weed control at 70 g/ha [12]: 95 to 100%
